In patent US7638119B2, “Method of diminishing the symptoms of neurodegenerative disease” (priority 2004, dated 2009):
Where two headings read alike, the source gives them in different places.

What was measured:
[1] = system: Nrf2+/+ and −/− primary cortical neuronal cultures; test: LDH release cytotoxicity in primary neuronal cultures treated with 3NP; type: cell-based, mouse; conditions: Nrf2−/− versus wild-type cultures, all doses, treated for 48
Experimental: (§1) For primary cortical neuronal cultures, Nrf2+/− mice were bred and cultures were prepared from individual E15/16 embryos as previously described (Lee, J. M., et al., supra, 2003). Treatments were applied between day 3 and 5 in vitro. Immunostaining for β-III-tubulin and GFAP confirmed no difference in the ratio of neurons to astrocytes between genotypes (data not shown). HPAP+ cultures were prepared similarly. HPAP activity and histochemistry in primary cultures was measured as previously described (Johnson, D. A., et al., supra, 2002).
(§2) LDH release into medium was measured using the CytoTox96 Non-Radioactive Cytotoxicity Assay kit (Promega) according to the manufacturers instructions. LDH activity was measured on both media and lysed cells. After normalizing to non-treated wells, the percentage of LDH in the media was calculated. Each measurement was made in at least triplicate on separate cultures from three individual pups. Terminal deoxynucleotidyltransferase-mediated dUTP nick end labeling (TUNEL; Roche Applied Science) staining was also performed according to the manufacturers instructions on cultures from at least two different pups per genotype.
(§3) In order to examine the differential sensitivity of Nrf2−/− neurons to complex II inhibition, Nrf2+/+ and −/− primary cortical neuronal cultures (3 DIV) were treated with 3NP for 48 and assessed for LDH release. […]

[2] = system: Nrf2+/+ and −/− primary cortical neuronal cultures; test: TUNEL staining of primary neuronal cultures treated with 3NP; type: cell-based, mouse; conditions: 2 mM 3NP, visual inspection
Experimental: as §1, §2, §3

[3] = system: antioxidant response element (ARE); test: hPAP reporter activation after 3NP in ARE-hPAP primary neuronal cultures; type: cell-based, mouse; conditions: ARE-hPAP+ primary cortical neuronal cultures, neurotoxic doses, 48 hours
Source text: Nrf2−/− and ARE-hPAP transgenic reporter mice were bred separately. Nrf2−/− mice were created by targeted disruption of the Nrf2 gene (Chan, K., et al., Proc. Natl. Acad. Sci. USA 93:13943-13948, 1996). ARE-hPAP reporter mice were created by insertion of a 51 basepair segment of rat NAD(P)H Quinone Oxidoreductase-1 promoter containing the core ARE into a minimal promoter upstream of the heat stable human Placental Alkaline Phosphatase (hPAP) (Johnson, D. A., et al., J. Neurochem. 81:1233-1241, 2002).
as §1
This activation was localized to the surviving astrocytes (FIG. 2B) as visualized by vector red staining and GFAP co-labeling.

Nrf2−/−, +/− or +/+ mice [4] = test: Systemic 3NP administration: phenotypic scoring, death and weight loss; type: in vivo, mouse
Experimental: (§4) Nrf2−/−, +/−, or +/+ mice received i.p. injections of 50 mg/kg 3NP or vehicle every 12 hours for a total of 7 injections. 25 mg/ml 3-NP in PBS was prepared fresh and adjusted to pH 7.4 with 10M NaOH. Individual doses were diluted so that injection volume remained constant at 200 μl. Six to eight hours after the last dose mice were sacrificed as below. One Nrf2 KO mouse died prior to the seventh dose and three others had severe symptoms that were classified as stage III according to Gabrielson, et al. (Gabrielson, K. L., et al., Am. J. Pathol. 159:1507-1520, 2001).
We posited that this increased sensitivity would also extend to an in vivo model. 18 week-old mice were dosed every 12 hours with 50 mg/kg 3NP. After seven doses, a clear differential sensitivity had emerged based on the subjective classification described by Gabrielson, et al. (Gabrielson, K. L., et al., supra, 2001). […] No Nrf2+/+ or Nrf2+/− mice rated above stage 1.
Table 1: Phenotypic scoring of mice after 3NP administration. Nrf2+/+, Nrf2+/− and Nrf2−/− mice were scored Stage 0, I, II or III based on the development of clinical symptoms.

Nrf2−/−, +/− or +/+ mice [5] = test: Rotarod performance after 3NP; type: in vivo, mouse; conditions: Nrf2−/− mice versus 3NP-injected Nrf2+/+ and heterozygous mice, four hours after last dose, 5 rpm
Experimental: To assess sensorimotor deficits in 3NP-treated animals, mice were trained up to 5 times per day on the rotarod (Columbus Instruments) for three days prior to 3-NP administration (Fernagut, P. O., et al., Neuroscience 114:1005-1017, 2002). All mice were able to achieve 180 sec (5 rpm) on the first trial by day three. Rotarod function was measured prior to the first dose and following the last dose of 3-NP.
Four hours after the last dose, motor skills were assessed by rotarod performance. Up to three trials were given for each mouse and the longest time spent on the rotarod was used for analysis. All PBS-injected mice were able to maintain 5 rpm for 180 sec (the maximum time allowed).

Nrf2−/−, +/− or +/+ mice [6] = test: Striatal lesions after 3NP (Fluorojade-B, cresyl violet); type: in vivo, mouse
Experimental: as §4
(§5) Mice were euthanized with CO2 and perfused with 4% paraformaldehyde. Tissues were post-fixed overnight at 4° C. and cryoprotected in 30% sucrose/PBS. Using a cryostat (Leica), adjacent coronal 20 μm and 50 μm sections were taken for staining with Fluorojade-B and cresyl violet respectively through the entire striatum. […] Lesion size was quantified using the Cavieleri Estimator (Stereoinvestigator; Microbrightfield) on sections 200 μm apart. HPAP histochemistry was measured as previously described (Johnson, D. A., et al., supra, 2002).
After mice were sacrificed, brains were stained with cresyl violet or Fluorojade-B (FIG. 3C). Lesions in Nrf2−/− mice were observable using both staining methods; however, they were more apparent in the fluorojade B-stained sections; these sections were used for lesion volume quantification (FIG. 3D).

[7] = system: Nrf2−/−, +/− and +/+ mice; conditions: for Average lesion size: 0.5M malonate 1 μl intrastriatal, cresyl violet
Experimental: (§6) Mice were anesthetized with isoflurane. […] One minute after insertion of the Hamilton syringe, the solution was administered over 2 minutes and the needle was withdrawn 2 mm per minute. ARE-hPAP+ mice were injected similarly with 0.25M (1 μl), due to differences in background strain sensitivity.
as §5
Ten days post-injection mice were sacrified and lesion size was measured by cresyl violet staining (FIG. 4A).

[8] = system: antioxidant response element (ARE); test: hPAP histochemistry after intrastriatal malonate in ARE-hPAP reporter mice; type: in vivo, mouse; conditions: 48 hours after intrastriatal malonate
Experimental: as §6, §5
Malonate was injected intrastriatally into ARE-hPAP reporter mice. After 48 hours the mice were euthanized and hPAP histochemistry was performed. […] ARE-activated astrocytes, as visualized by GFAP immunohistochemistry, occur in a similar pattern (FIG. 5C).

[9] = Nrf2−/− mice, 50 mg/kg i.p. every 12 hours, 7 injections

O=C(O)CC[N+](=O)[O-] [3NP, 3-nitropropionic acid]
LDH release [1]: greater in the Nrf2−/− cultures than in wild-type cultures | TUNEL-positive neurons ([2]; Nrf2+/+ neurons): significantly lower percentage | TUNEL-positive neurons ([2]; Nrf2−/− neurons): Nearly all | hPAP expression [3]: significantly increased | Mice scored Stage 0 (Nrf2−/−, +/− or +/+ mice [4]; Nrf2+/+ mice, 50 mg/kg i.p. every 12 hours, 7 injections): 5 | Mice scored Stage 0 (Nrf2−/−, +/− or +/+ mice [4]; Nrf2+/− mice, 50 mg/kg i.p. every 12 hours, 7 injections): 4 | Mice scored Stage 0 (Nrf2−/−, +/− or +/+ mice [4]; [9]): 1 | Mice scored Stage I (Nrf2−/−, +/− or +/+ mice [4]; [9]): 3 | Mice scored Stage II (Nrf2−/−, +/− or +/+ mice [4]; [9]): 1 | Weight loss, percent of starting weight (Nrf2−/−, +/− or +/+ mice [4]; Nrf2−/− mice, after seven doses of 50 mg/kg): 12±1.9% | Death (Nrf2−/−, +/− or +/+ mice [4]; Nrf2−/− mice, prior to the seventh dose of 50 mg/kg): one mouse died | Rotarod function (Nrf2−/−, +/− or +/+ mice [5]): significantly reduced function | Mice with measurable lesions (Nrf2−/−, +/− or +/+ mice [6]; Nrf2+/+ mice): No lesions | Mice with measurable lesions (Nrf2−/−, +/− or +/+ mice [6]; Nrf2+/− mice): only one | Mice with measurable lesions (Nrf2−/−, +/− or +/+ mice [6]; Nrf2−/− mice): Five of the eight

O=C(O)CC(=O)O [malonate]
Average lesion size ([7]; Nrf2+/+ mice, ten days post-injection): 0.03±0.07 mm^3 | Average lesion size ([7]; Nrf2+/− mice, ten days post-injection): 0.16±0.07 mm^3 | Increase of average lesion size ([7]; Nrf2−/− versus Nrf2+/+ mice): over 21 fold | Increase of average lesion size ([7]; Nrf2−/− versus Nrf2+/− mice): 4 fold | Overt behavioral phenotype ([7]; all genotypes, ten days post-injection): None of the mice exhibited an overt behavioral phenotype | hPAP activity [8]: present near the edges of the lesion
